Like-named read-outs stand apart in the source and are kept apart here. Numbered stars: 1 amine (or outer) side, 2 acyl side, 3 side chain; on linkers, the order of the positions; unused ones are H or OH. Square brackets hold non-standard residues; d marks the D form. Peptide text beside a SMILES is read from it. * marks the point of attachment. Heptanoyl(3-oxo-2,2,4S,6-Me) = CC(C)C[C@H](C)C(=O)C(C)(C)C(=O)*; NH((S)-1-NMe2-3-Me-but-2-yl) = CC(C)[C@@H](CN(C)C)N*; Ile(3R-OH) = CC[C@@](C)(O)[C@H](N)C(=O)O; dVal(3-OH) = CC(C)(O)[C@@H](N)C(=O)O; d(aIle) = CC[C@H](C)[C@@H](N)C(=O)O; Val(3-OH) = CC(C)(O)[C@H](N)C(=O)O; X1 = CCC(CC)=C(N[*:1])C(=O)[*:2]; ΔVal = CC(C)=C(N)C(=O)O
Legend:
NCIH1048 = assay: cells; conditions: read-out: Aver IC50, NCIH1048
Description: (§1) The antiproliferative activity profiles of 1a, its full-length analogs 2a and 2b, and its partial structures (23, 24, 26, and 30) were determined by in vitro screening in 72 hours MTS cell proliferation assays against a panel of 18 different human cancer cell lines. […] The three peptides were also evaluated for their antiproliferative activity against the lung fibroblast MRC5 cell line.
(§2) Cells (40 µ L) are added into individual wells of a 384-well black/clear bottom plate on day zero at concentrations enabling continuous log growth over the course of the assay. On day one, compounds (or DMSO) are transferred using an ATS-liquid handler (100 nL per well) to individual wells containing cells and the cells are treated for 72 hours (37 °C, 5% CO 2) prior to measuring proliferation using MTS reagent following manufacturer’s instructions. Net OD values are determined by subtracting the average OD values of cells (measured on day 1, T = 0) from average total OD value of cells (measured on day 4, T = 72h). IC 50 values are calculated using proprietary software (IC 50 values normalized against all compounds). Results represent n>2 independent studies (in duplicate).
(§3) Table S1. Antiproliferative Data of Compounds 1a, 2a, 2b, 23, 24, 26, and 30.
(§4) Table S2. Human Cell Line Descriptions.
(§5) Human Cell Line* Description
(§6) *All cells were obtained from ATCC and are authenticated

OVCAR3 = assay: cells; conditions: read-out: Aver IC50, OVCAR3
Description: as §1, §2, §3, §4, §5, §6

BXPC3 = assay: cells; conditions: read-out: Aver IC50, BXPC3
Description: as §1, §2, §3, §4, §5, §6

SNUC1 = assay: cells; conditions: read-out: Aver IC50, SNUC1
Description: as §1, §2, §3, §4, §5, §6

THP1 = assay: cells; conditions: read-out: Aver IC50, THP1
Description: as §1, §2, §3, §4, §5, §6

HL60 = assay: cells; conditions: read-out: Aver IC50, HL60
Description: as §1, §2, §3, §4, §5, §6

CALU6 = assay: cells; conditions: read-out: Aver IC50, CALU6
Description: as §1, §2, §3, §4, §5, §6

PANC1005 = assay: cells; conditions: read-out: Aver IC50, PANC1005
Description: as §1, §2, §3, §4, §5, §6

HT29 = assay: cells; conditions: read-out: Aver IC50, HT29
Description: as §1, §2, §3, §4, §5, §6

MV411 = assay: cells; conditions: read-out: Aver IC50, MV411
Description: as §1, §2, §3, §4, §5, §6

A375 = assay: cells; conditions: read-out: Aver IC50, A375
Description: as §1, §2, §3, §4, §5, §6

U937 = assay: cells; conditions: read-out: Aver IC50, U937
Description: as §1, §2, §3, §4, §5, §6

RAMOS = assay: cells; conditions: read-out: Aver IC50, RAMOS
Description: as §1, §2, §3, §4, §5, §6

COLO678 = assay: cells; conditions: read-out: Aver IC50, COLO678
Description: as §1, §2, §3, §4, §5, §6

[1] = system: lung fibroblast MRC5 cell line; assay: cells; conditions: read-out: Aver IC50, MRC5
Description: as §1, §2, §3, §4, §5, §6

A549 = assay: cells; conditions: read-out: Aver IC50, A549
Description: as §1, §2, §3, §4, §5, §6

JURKAT = assay: cells; conditions: read-out: Aver IC50, JURKAT
Description: as §1, §2, §3, §4, §5, §6

HCT116 = assay: cells; conditions: read-out: Aver IC50, HCT116
Description: as §1, §2, §3, §4, §5, §6

MCF7 = conditions: read-out: Aver IC50, MCF7; MCF7 (Breast Carcinoma); MTS, 72 hours, 37 °C, 5% CO2, 384-well; n>2 independent studies (in duplicate)
Description: as §1, §2, §3, §4, §5, §6

[2] = NCIH1048 (Lung - SCLC), MTS, 72 hours, 37 °C, 5% CO2, 384-well, n>2 independent studies (in duplicate)
[3] = OVCAR3 (Ovary - Adenocarcinoma), MTS, 72 hours, 37 °C, 5% CO2, 384-well, n>2 independent studies (in duplicate)
[4] = BXPC3 (Pancreatic - Adenocarcinoma), MTS, 72 hours, 37 °C, 5% CO2, 384-well, n>2 independent studies (in duplicate)
[5] = SNUC1 (Colon Carcinoma), MTS, 72 hours, 37 °C, 5% CO2, 384-well, n>2 independent studies (in duplicate)
[6] = THP1 (Acute Monocytic Leukemia), MTS, 72 hours, 37 °C, 5% CO2, 384-well, n>2 independent studies (in duplicate)
[7] = HL60 (Leukema - Promyelocytic), MTS, 72 hours, 37 °C, 5% CO2, 384-well, n>2 independent studies (in duplicate)
[8] = CALU6 (Lung - Adenocarcinoma), MTS, 72 hours, 37 °C, 5% CO2, 384-well, n>2 independent studies (in duplicate)
[9] = PANC1005 (Pancreatic - Adenocarcinoma), MTS, 72 hours, 37 °C, 5% CO2, 384-well, n>2 independent studies (in duplicate)
[10] = HT29 (Colon Carcinoma), MTS, 72 hours, 37 °C, 5% CO2, 384-well, n>2 independent studies (in duplicate)
[11] = MV411 (Acute Myeloid Leukemia), MTS, 72 hours, 37 °C, 5% CO2, 384-well, n>2 independent studies (in duplicate)
[12] = A375 (Malignant Melanoma), MTS, 72 hours, 37 °C, 5% CO2, 384-well, n>2 independent studies (in duplicate)
[13] = U937 (Pro-monocytic, Human Myeloid Leukemia), MTS, 72 hours, 37 °C, 5% CO2, 384-well, n>2 independent studies (in duplicate)
[14] = RAMOS (Burkitt's lymphoma), MTS, 72 hours, 37 °C, 5% CO2, 384-well, n>2 independent studies (in duplicate)
[15] = COLO678 (Colon Carcinoma), MTS, 72 hours, 37 °C, 5% CO2, 384-well, n>2 independent studies (in duplicate)
[16] = MRC5 (Lung Fibroblast, noncancerous), MTS, 72 hours, 37 °C, 5% CO2, 384-well, n>2 independent studies (in duplicate)
[17] = A549 (Lung - NSCLC), MTS, 72 hours, 37 °C, 5% CO2, 384-well, n>2 independent studies (in duplicate)
[18] = JURKAT (acute T-cell leukemia), MTS, 72 hours, 37 °C, 5% CO2, 384-well, n>2 independent studies (in duplicate)
[19] = HCT116 (Colon Carcinoma), MTS, 72 hours, 37 °C, 5% CO2, 384-well, n>2 independent studies (in duplicate)

Question: Which results are given for `CC[C@@]1(O)C(=O)OCc2c1cc1n(c2=O)Cc2cc3ccccc3nc2-1` [Camptothecin, reference compound]?
Answer: IC50 (NCIH1048; Homo sapiens, NCI-H1048, 72 h): 0.0097 µM; IC50 (OVCAR3; Homo sapiens, OVCAR-3, 72 h): 0.0534 µM; IC50 (BXPC3; Homo sapiens, BXPC-3, 72 h): 0.0384 µM; IC50 (SNUC1; Homo sapiens, SNU-C1, 72 h): 0.0474 µM; IC50 (THP1; Homo sapiens, THP-1, 72 h): 0.0449 µM; IC50 (HL60; Homo sapiens, HL-60, 72 h): 0.021 µM; IC50 (CALU6; Homo sapiens, Calu-6, 72 h): 0.0102 µM; IC50 (PANC1005; Homo sapiens, Panc1005, 72 h): 0.0453 µM; IC50 (HT29; Homo sapiens, HT-29, 72 h): 0.103 µM; IC50 (MV411; Homo sapiens, MV4-11, 72 h): 0.0071 µM; IC50 (A375; Homo sapiens, A-375, 72 h): 0.0059 µM; IC50 (U937; Homo sapiens, U-937, 72 h): 0.0197 µM; IC50 (RAMOS; Homo sapiens, Ramos, 72 h): 0.0097 µM; IC50 (COLO678; Homo sapiens, COLO-678, 72 h): 0.126 µM; IC50 ([1]; Homo sapiens, MRC5, 72 h): 0.0525 µM; IC50 (A549; Homo sapiens, A549, 72 h): 0.0277 µM; IC50 (JURKAT; Homo sapiens, Jurkat, 72 h): 0.0073 µM; IC50 (HCT116; Homo sapiens, HCT-116, 72 h): 0.0109 µM

Question: With `CCC(CC)=C(NC(=O)CNC(=O)C(NC(=O)[C@@H](NC(=O)C(C)(C)C(=O)[C@@H](C)CC(C)C)[C@](C)(O)CC)=C(C)C)C(=O)N[C@@H](C(=O)N[C@@H](C(=O)N[C@@H](C(=O)N[C@H](C(=O)NC(C(=O)N[C@H](C)C(=O)N[C@@H](C(=O)N[C@H](C(=O)NC(C(=O)N[C@H](CN(C)C)C(C)C)=C(C)C)C(C)C)C(C)C)=C(C)C)C(C)(C)O)C(C)(C)O)[C@@H](C)CC)C(C)C` [Compound 2b] ({Heptanoyl(3-oxo-2,2,4S,6-Me)}-[Ile(3R-OH)][ΔVal]G[X1][dV][d(aIle)][dVal(3-OH)][Val(3-OH)][ΔVal][dA][dV]V[ΔVal]-{NH((S)-1-NMe2-3-Me-but-2-yl)}) as the compound, how does the IC50 (MCF7) read?
Answer: The IC50 was 13 µM.

Question: And the IC50 (NCIH1048; [2])?
Answer: Its IC50 is 2.37 µM.

Question: And the IC50 (OVCAR3; [3])?
Answer: Its IC50 is 0.185 µM.

Question: And the IC50 (BXPC3; [4])?
Answer: The IC50 was 9.31 µM.

Question: And the IC50 (SNUC1; [5])?
Answer: The IC50 was 0.0583 µM.

Question: What about the IC50 (THP1; [6]) of the same compound?
Answer: The IC50 was 9.69 µM.

Question: And the IC50 (HL60; [7])?
Answer: The IC50 was 0.465 µM.

Question: And the IC50 (CALU6; [8])?
Answer: Its IC50 is 1 µM.

Question: What about the IC50 (PANC1005; [9]) of the same compound?
Answer: Its IC50 is 8.81 µM.

Question: What about the IC50 (HT29; [10]) of the same compound?
Answer: Its IC50 is 5.25 µM.

Question: And the IC50 (MV411; [11])?
Answer: Its IC50 is 0.0488 µM.

Question: What about the IC50 (A375; [12]) of the same compound?
Answer: Its IC50 is 0.254 µM.

Question: What about the IC50 (U937; [13]) of the same compound?
Answer: Its IC50 is 0.947 µM.

Question: And the IC50 (RAMOS; [14])?
Answer: Its IC50 is 1.2 µM.

Question: And the IC50 (COLO678; [15])?
Answer: Its IC50 is 6.5 µM.

Question: And the IC50 [1, 16]?
Answer: Its IC50 is 17.5 µM.

Question: And the IC50 (A549; [17])?
Answer: Its IC50 is 0.249 µM.

Question: What about the IC50 (JURKAT; [18]) of the same compound?
Answer: The IC50 was 13.4 µM.

Question: What about the IC50 (HCT116; [19]) of the same compound?
Answer: Its IC50 is 4.26 µM.

Question: `CC(=O)N[C@@H](C(=O)N[C@H](C(=O)NC(C(=O)N[C@H](CN(C)C)C(C)C)=C(C)C)C(C)C)C(C)C` [Compound 23] was tested. Which IC50 (NCIH1048; [2]) did it give?
Answer: Its IC50 is greater than 25 µM.

Question: What about the IC50 (OVCAR3; [3]) of the same compound?
Answer: Its IC50 is greater than 25 µM.

Question: And the IC50 (BXPC3; [4])?
Answer: The IC50 was greater than 25 µM.

Question: And the IC50 (SNUC1; [5])?
Answer: The IC50 was greater than 25 µM.

Question: And the IC50 (THP1; [6])?
Answer: Its IC50 is greater than 25 µM.

Question: And the IC50 (HL60; [7])?
Answer: The IC50 was greater than 25 µM.

Question: And the IC50 (CALU6; [8])?
Answer: Its IC50 is greater than 25 µM.

Question: What about the IC50 (PANC1005; [9]) of the same compound?
Answer: The IC50 was greater than 25 µM.

Question: What about the IC50 (HT29; [10]) of the same compound?
Answer: The IC50 was greater than 25 µM.

Question: And the IC50 (MV411; [11])?
Answer: Its IC50 is greater than 25 µM.

Question: What about the IC50 (A375; [12]) of the same compound?
Answer: Its IC50 is greater than 25 µM.

Question: What about the IC50 (U937; [13]) of the same compound?
Answer: Its IC50 is greater than 25 µM.

Question: And the IC50 (RAMOS; [14])?
Answer: The IC50 was greater than 25 µM.

Question: What about the IC50 (COLO678; [15]) of the same compound?
Answer: The IC50 was greater than 25 µM.

Question: And the IC50 [1, 16]?
Answer: The IC50 was greater than 25 µM.

Question: And the IC50 (A549; [17])?
Answer: Its IC50 is greater than 25 µM.

Question: And the IC50 (JURKAT; [18])?
Answer: The IC50 was greater than 25 µM.

Question: And the IC50 (HCT116; [19])?
Answer: The IC50 was greater than 25 µM.

From publication PMC8848768, “Synthesis and evaluation of potent yaku'amide A analogs” (Chemical Science, 2022)
